± gives the uncertainty stated by the source.
Test: xn = mol fraction of the nth substance listed

ClC(Cl)(Cl)Cl + CO
Details | viscosity [mPa·s]
298 K, 101.3 kPa, x1 = 0.1518 | 0.719 ± 0.009
298 K, 101.3 kPa, x1 = 0.2927 | 0.809 ± 0.01
298 K, 101.3 kPa, x1 = 0.4346 | 0.844 ± 0.01
298 K, 101.3 kPa, x1 = 0.5445 | 0.874 ± 0.01
298 K, 101.3 kPa, x1 = 0.6871 | 0.875 ± 0.009
298 K, 101.3 kPa, x1 = 0.761 | 0.858 ± 0.009
298 K, 101.3 kPa, x1 = 0.8784 | 0.867 ± 0.009
298.15 K, 101 kPa, x2 = 0.0367 | 0.877 ± 0.008
298.15 K, 101 kPa, x2 = 0.0708 | 0.871 ± 0.008
298.15 K, 101 kPa, x2 = 0.0886 | 0.869 ± 0.008
298.15 K, 101 kPa, x2 = 0.1063 | 0.865 ± 0.008
298.15 K, 101 kPa, x2 = 0.2 | 0.858 ± 0.023
298.15 K, 101 kPa, x2 = 0.2104 | 0.8395 ± 0.018
298.15 K, 101 kPa, x2 = 0.2547 | 0.857 ± 0.008
298.15 K, 101 kPa, x2 = 0.35 | 0.854 ± 0.022
298.15 K, 101 kPa, x2 = 0.375 | 0.8288 ± 0.018
298.15 K, 101 kPa, x2 = 0.4226 | 0.842 ± 0.008
298.15 K, 101 kPa, x2 = 0.46 | 0.846 ± 0.022
298.15 K, 101 kPa, x2 = 0.4787 | 0.839 ± 0.008
298.15 K, 101 kPa, x2 = 0.5069 | 0.8105 ± 0.017
298.15 K, 101 kPa, x2 = 0.55 | 0.831 ± 0.022
298.15 K, 101 kPa, x2 = 0.5618 | 0.815 ± 0.008
298.15 K, 101 kPa, x2 = 0.6107 | 0.807 ± 0.008
298.15 K, 101 kPa, x2 = 0.6154 | 0.7666 ± 0.016
298.15 K, 101 kPa, x2 = 0.6934 | 0.77 ± 0.008
298.15 K, 101 kPa, x2 = 0.7057 | 0.7387 ± 0.016
298.15 K, 101 kPa, x2 = 0.76 | 0.764 ± 0.02
298.15 K, 101 kPa, x2 = 0.7826 | 0.7057 ± 0.015
298.15 K, 101 kPa, x2 = 0.7853 | 0.719 ± 0.007
298.15 K, 101 kPa, x2 = 0.83 | 0.702 ± 0.019
298.15 K, 101 kPa, x2 = 0.8483 | 0.6886 ± 0.015
298.15 K, 101 kPa, x2 = 0.88 | 0.665 ± 0.018
298.15 K, 101 kPa, x2 = 0.9029 | 0.626 ± 0.006
298.15 K, 101 kPa, x2 = 0.9057 | 0.6477 ± 0.014
298.15 K, 101 kPa, x2 = 0.9065 | 0.6438 ± 0.0059
298.15 K, 101 kPa, x2 = 0.95 | 0.599 ± 0.016
298.15 K, 101 kPa, x2 = 0.9555 | 0.5806 ± 0.013
298.15 K, 101 kPa, x2 = 0.9571 | 0.5875 ± 0.0055
298.15 K, 101 kPa, x2 = 0.9616 | 0.577 ± 0.006
298.15 K, 101 kPa, x2 = 0.9788 | 0.5672 ± 0.0053
303.15 K, 101 kPa, x1 = 0.0355 | 0.54 ± 0.014
303.15 K, 101 kPa, x1 = 0.1574 | 0.594 ± 0.016
303.15 K, 101 kPa, x1 = 0.2723 | 0.665 ± 0.018
303.15 K, 101 kPa, x1 = 0.4653 | 0.71 ± 0.019
303.15 K, 101 kPa, x1 = 0.6066 | 0.76 ± 0.02
303.15 K, 101 kPa, x1 = 0.7506 | 0.766 ± 0.02
303.15 K, 101 kPa, x1 = 0.901 | 0.78 ± 0.021
303.15 K, 101 kPa, x2 = 0.0396 | 0.8187 ± 0.0066
303.15 K, 101 kPa, x2 = 0.0862 | 0.8054 ± 0.0064
303.15 K, 101 kPa, x2 = 0.1437 | 0.7973 ± 0.0063
303.15 K, 101 kPa, x2 = 0.2352 | 0.793 ± 0.0062
303.15 K, 101 kPa, x2 = 0.3077 | 0.7919 ± 0.0061
303.15 K, 101 kPa, x2 = 0.4129 | 0.7852 ± 0.0059
303.15 K, 101 kPa, x2 = 0.531 | 0.7677 ± 0.0057
303.15 K, 101 kPa, x2 = 0.6187 | 0.7443 ± 0.0054
303.15 K, 101 kPa, x2 = 0.6838 | 0.7184 ± 0.0052
303.15 K, 101 kPa, x2 = 0.824 | 0.6435 ± 0.0047
303.15 K, 101 kPa, x2 = 0.8821 | 0.6038 ± 0.0044
303.15 K, 101 kPa, x2 = 0.9292 | 0.5669 ± 0.0041
303.15 K, 101 kPa, x2 = 0.9728 | 0.5306 ± 0.0039
308.15 K, 101 kPa, x2 = 0.0367 | 0.764 ± 0.007
308.15 K, 101 kPa, x2 = 0.0708 | 0.756 ± 0.007
308.15 K, 101 kPa, x2 = 0.0886 | 0.755 ± 0.007
308.15 K, 101 kPa, x2 = 0.1063 | 0.749 ± 0.007
308.15 K, 101 kPa, x2 = 0.2547 | 0.738 ± 0.007
308.15 K, 101 kPa, x2 = 0.4226 | 0.724 ± 0.007
308.15 K, 101 kPa, x2 = 0.4787 | 0.72 ± 0.007
308.15 K, 101 kPa, x2 = 0.5618 | 0.7 ± 0.007
308.15 K, 101 kPa, x2 = 0.6107 | 0.691 ± 0.007
308.15 K, 101 kPa, x2 = 0.6934 | 0.656 ± 0.007
308.15 K, 101 kPa, x2 = 0.7853 | 0.619 ± 0.006
308.15 K, 101 kPa, x2 = 0.9029 | 0.543 ± 0.006
308.15 K, 101 kPa, x2 = 0.9616 | 0.502 ± 0.005
313.15 K, 101 kPa, x1 = 0.0355 | 0.54 ± 0.014
313.15 K, 101 kPa, x1 = 0.1574 | 0.594 ± 0.016
313.15 K, 101 kPa, x1 = 0.2723 | 0.665 ± 0.018
313.15 K, 101 kPa, x1 = 0.4653 | 0.71 ± 0.019
313.15 K, 101 kPa, x1 = 0.6066 | 0.76 ± 0.02
313.15 K, 101 kPa, x1 = 0.7506 | 0.766 ± 0.02
313.15 K, 101 kPa, x1 = 0.901 | 0.78 ± 0.021
313.15 K, 101.33 kPa, x2 = 0.105 | 0.7595 ± 0.02
313.15 K, 101.33 kPa, x2 = 0.193 | 0.7624 ± 0.02
313.15 K, 101.33 kPa, x2 = 0.303 | 0.75 ± 0.02
313.15 K, 101.33 kPa, x2 = 0.35 | 0.7427 ± 0.019
313.15 K, 101.33 kPa, x2 = 0.51 | 0.6955 ± 0.018
313.15 K, 101.33 kPa, x2 = 0.68 | 0.6248 ± 0.016
313.15 K, 101.33 kPa, x2 = 0.72 | 0.605 ± 0.016
313.15 K, 101.33 kPa, x2 = 0.79 | 0.57 ± 0.015
313.15 K, 101.33 kPa, x2 = 0.91 | 0.505 ± 0.013
318 K, 101.3 kPa, x1 = 0.1527 | 0.5328 ± 0.021
318 K, 101.3 kPa, x1 = 0.2949 | 0.6044 ± 0.023
318 K, 101.3 kPa, x1 = 0.4375 | 0.6446 ± 0.024
318 K, 101.3 kPa, x1 = 0.5566 | 0.6729 ± 0.025
318 K, 101.3 kPa, x1 = 0.7077 | 0.69 ± 0.025
318 K, 101.3 kPa, x1 = 0.8931 | 0.7164 ± 0.026
318.15 K, 101 kPa, x2 = 0.0367 | 0.672 ± 0.007
318.15 K, 101 kPa, x2 = 0.0708 | 0.664 ± 0.007
318.15 K, 101 kPa, x2 = 0.0886 | 0.67 ± 0.007
318.15 K, 101 kPa, x2 = 0.1063 | 0.657 ± 0.007
318.15 K, 101 kPa, x2 = 0.2547 | 0.643 ± 0.006
318.15 K, 101 kPa, x2 = 0.4226 | 0.63 ± 0.006
318.15 K, 101 kPa, x2 = 0.4787 | 0.623 ± 0.006
318.15 K, 101 kPa, x2 = 0.5618 | 0.607 ± 0.006
318.15 K, 101 kPa, x2 = 0.6107 | 0.598 ± 0.006
318.15 K, 101 kPa, x2 = 0.6934 | 0.57 ± 0.006
318.15 K, 101 kPa, x2 = 0.7853 | 0.537 ± 0.006
318.15 K, 101 kPa, x2 = 0.9029 | 0.476 ± 0.005
318.15 K, 101 kPa, x2 = 0.9616 | 0.44 ± 0.005
323.15 K, 101 kPa, x1 = 0.0355 | 0.51 ± 0.014
323.15 K, 101 kPa, x1 = 0.1574 | 0.543 ± 0.014
323.15 K, 101 kPa, x1 = 0.2723 | 0.612 ± 0.016
323.15 K, 101 kPa, x1 = 0.4653 | 0.642 ± 0.017
323.15 K, 101 kPa, x1 = 0.6066 | 0.682 ± 0.018
323.15 K, 101 kPa, x1 = 0.7506 | 0.698 ± 0.018
323.15 K, 101 kPa, x1 = 0.901 | 0.706 ± 0.019
